From ChEMBL document CHEMBL1158159, “Design, synthesis, and structure-affinity relationship studies in NK1 receptor ligands based on azole-fused quinolinecarboxamide moieties” (Bioorg Med Chem, 2008)

Biological target: Substance-P receptor (Homo sapiens, UniProt P25103)
Test: Displacement of [125I]BH-SP to human recombinant NK1 receptor in CHO cells
Assay type: cell-based

Chain of Substance-P receptor (P25103 whole entry): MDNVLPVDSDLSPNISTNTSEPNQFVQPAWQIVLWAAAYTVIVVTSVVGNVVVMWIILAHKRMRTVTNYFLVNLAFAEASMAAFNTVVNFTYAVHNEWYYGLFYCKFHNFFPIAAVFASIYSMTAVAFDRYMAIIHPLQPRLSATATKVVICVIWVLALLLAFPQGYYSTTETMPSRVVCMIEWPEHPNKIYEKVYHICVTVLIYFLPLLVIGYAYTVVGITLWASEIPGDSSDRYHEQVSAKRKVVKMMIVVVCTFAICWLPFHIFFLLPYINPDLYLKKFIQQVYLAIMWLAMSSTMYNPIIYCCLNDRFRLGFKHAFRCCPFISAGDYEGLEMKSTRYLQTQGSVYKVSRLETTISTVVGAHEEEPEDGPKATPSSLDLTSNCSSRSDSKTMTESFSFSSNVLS

SMILES | IC50 [nM]
CN(Cc1cc(C(F)(F)F)cc(C(F)(F)F)c1)C(=O)c1c(-c2ccccc2)c2ccccc2n2ccnc12 | 38
Cc1ccc(-c2c(C(=O)NCc3cc(C(F)(F)F)cc(C(F)(F)F)c3)c3nnnn3c3ccccc23)cc1 | 401
O=C(NCc1cc(C(F)(F)F)cc(C(F)(F)F)c1)c1c(-c2ccccc2)c2ccccc2n2cncc12 | 146
Cc1ccc(-c2c(C(=O)N(C)Cc3cc(C(F)(F)F)cc(C(F)(F)F)c3)c3nnnn3c3ccccc23)cc1 | 55
O=C(NCc1cc(C(F)(F)F)cc(C(F)(F)F)c1)c1c(-c2ccccc2)c2ccccc2n2cnnc12 | 542
CN(Cc1cc(C(F)(F)F)cc(C(F)(F)F)c1)C(=O)c1c(-c2ccccc2)c2ccccc2n2cccc12 | 36
O=C(NCc1cc(C(F)(F)F)cc(C(F)(F)F)c1)c1c(-c2ccccc2)c2ccccc2n2ccnc12 | 1230
CN(Cc1cc(C(F)(F)F)cc(C(F)(F)F)c1)C(=O)c1c(-c2ccc(F)cc2)c2ccccc2n2nnnc12 | 21
COc1ccccc1CNC(=O)c1c(-c2ccccc2)c2ccccc2n2nnnc12 | 2750
COc1cc(CNC(=O)c2c(-c3ccccc3)c3ccccc3n3nnnc23)cc(OC)c1 | 780
O=C(NCc1cc(C(F)(F)F)cc(C(F)(F)F)c1)c1c(-c2ccccc2)c2ccccc2n2nnnc12 | 311
CN(Cc1cc(C(F)(F)F)cc(C(F)(F)F)c1)C(=O)c1c(-c2ccccc2)c2ccccc2n2cnnc12 | 9
O=C(NCc1cc(C(F)(F)F)cc(C(F)(F)F)c1)c1c(-c2ccccc2)c2ccccc2n2cccc12 | 390
CN(Cc1cc(C(F)(F)F)cc(C(F)(F)F)c1)C(=O)c1c(-c2ccccc2)c2ccccc2n2cncc12 | 4.3
CN(Cc1cc(C(F)(F)F)cc(C(F)(F)F)c1)C(=O)c1c(-c2ccccc2)c2ccccc2n2nnnc12 | 26
O=C(NCc1cc(C(F)(F)F)cc(C(F)(F)F)c1)c1c(-c2ccc(F)cc2)c2ccccc2n2nnnc12 | 235
